Source: patent US7563864B2, “Prolyl endopeptidase mediated destruction of T cell epitopes in whole gluten” (Celiac Sprue Research Foundation, priority 2004, dated 2009)

Tests used:
[1] = Trypsin activity assay; type: biochemical; conditions: standard chromogenic assay; pH 8.2, 25° C.
Protocol: Trypsin: 870 μL 46 mM Tris-HCl, 11.5 mM CaCl2, pH 8.1 and 100 μL 10 mM N-α-p-Tosyl-L-Arginine methyl ester (TAME) were mixed and incubated at room temperature for 10′. 5 μL Trypsin (1 mg/ml) were added and the absorption at 247 nm was recorded for 2′, every 10″. Unit definition: One unit hydrolyzes 1 μmol of TAME per min at pH 8.2 and 25° C. Extinction coefficient 0.18 cm^2/μmol at 247 nm. 1 TAME unit=19.2 USP units.

[2] = system: denatured hemoglobin substrate; experiment: Pepsin activity assay; type: biochemical; conditions: standard chromogenic assay; 37° C.
Protocol: Activity assays—Pepsin: 300 μL 2.5% Hemoglobin and 75 μL 0.3 M HCl were mixed and incubated for 10′ at 37° C., then added to 75 μL pepsin solution (0.1 mg/ml in 0.01 M HCl, pH=2.0). The samples were incubated for 0′, 10′ and 20′ at 37° C. (3 samples), and the reaction was stopped by addition of 750 μL 5% Trichloroacetic acid (TCA), and incubated 5′ at 37° C. For the 0′ samples, the TCA was added before the hemoglobin. Samples were centrifuged for 10′ at 13400×g. The absorption was recorded at 280 nm. One unit renders TCA soluble absorption of 0.001 at 280 nm per min at 37° C. from a denatured hemoglobin substrate.

[3] = Chymotrypsin activity assay; type: biochemical; conditions: standard chromogenic assay; pH 7.8, 25° C.
Protocol: Chymotrypsin: 750 μL 80 mM Tris-HCl, 100 mM CaCl2, pH 7.8 and 700 μL 1.07 mM BTEE (in Water/MeOH 1:1) were mixed and incubated at room temperature for 10′. 5 μL Chymotrypsin (1 mg/ml) were added and the absorption at 256 nm was recorded for 2′, every 10″. One unit hydrolyzes 1 μmol of BTEE per min at pH 7.8 and 25° C. Extinction coefficient 0.964 cm^2/μmol at 256 nm. 1 BTEE unit=29.55 USP units.

[4] = Elastase activity assay; type: biochemical; conditions: standard chromogenic assay; pH 8.0, 25° C.
Protocol: Elastase: 935 μL 0.1 M Tris (pH 8.0) and 65 μL of Succinyl-Ala3-p-Nitro anilide (4.4 mM in 0.1 M Tris, pH 8.0) were mixed and incubated at room temperature for 10′. 5 μL Elastase (0.2 mg/ml) were added and the absorption at 410 nm was recorded for 2′, every 10″. One unit hydrolyzes 1 μmol of Succinyl-Ala3-p-Nitro anilide per min at pH 8.0 and 25° C. Extinction coefficient 8.8 cm^2/μmol at 410 nm. […].

[5] = system: intestinal T cell line 446.1.3; experiment: T cell proliferation assay, polyclonal T cell line 446.1.3; type: cell-based, human; set-up: key: −: no response; Stimulatory index (SI; T + APC + TG2-treated peptide divided by T + APC) of 3-10; ++: SI above 10; conditions: DQ2+ APC, 5 μM TG2-treated peptide, 3H thymidine incorporation
Source text: (§1) T cell assays—The generation of polyclonal gluten-specific T cell lines derived from ex vivo gluten challenged small intestinal biopsy specimens of adult Celiac Sprue patients have been described elsewhere. For this study 14 different intestinal T cell lines derived from 13 DQ2+celiac patients were selected based on two basic criteria; effective recognition of TG2-treated digests of gluten and significant responses to at least two different gluten epitopes (Table 2). The generation of intestinal T cell clones and the epitope specificity of these clones, except TCC 387.3, has been described elsewhere (10). The TCC 387.3 recognizes a TG2-dependent epitope, defined as γ-VI that is contained within residues 62-72 (PQQPFPQQPQQ) of recombinant γ-5 gliadin. The freeze-dried, proteolyzed gluten samples were dissolved in PBS with 2 mM CaCl2 and treated with 150 μg/ml human recombinant TG2 (14) or, in some experiments 200 μg/ml guinea pig transglutaminase (Sigma T-5398), for 2 hours at 37° C. The TG2-treated samples were incubated overnight in triplicates on U-bottomed 96 well plates with 75 000 cells per well of DQ2 homozygous, irradiated (75 Gy) EBV-transformed B-lymphoblastoid cell lines in a volume of 100 μl 15% pooled, inactivated human serum and RPMI1640. After the incubation 50 μl of freshly thawed T cells (1×10^6 cells/ml) were added to each well. The proliferation in the wells was evaluated by ^3H thymidine incorporation from 48-72 hours after the addition of the T cells.

[6] = system: intestinal T cell line 422.4.2; experiment: T cell proliferation assay, polyclonal T cell line 422.4.2; type: cell-based, human; set-up: key: −: no response; Stimulatory index (SI; T + APC + TG2-treated peptide divided by T + APC) of 3-10; ++: SI above 10; conditions: DQ2+ APC, 5 μM TG2-treated peptide, 3H thymidine incorporation
Source text: as §1

[7] = system: intestinal T cell line 496.1.2; experiment: T cell proliferation assay, polyclonal T cell line 496.1.2; type: cell-based, human; conditions: DQ2+ APC, 5 μM TG2-treated peptide, 3H thymidine incorporation
Source text: as §1

[8] = system: intestinal T cell line 421.1.4; experiment: T cell proliferation assay, polyclonal T cell line 421.1.4; type: cell-based, human; conditions: DQ2+ APC, 5 μM TG2-treated peptide, 3H thymidine incorporation
Source text: as §1

[9] = system: intestinal T cell line 502.1.2; experiment: T cell proliferation assay, polyclonal T cell line 502.1.2; type: cell-based, human; conditions: DQ2+ APC, 5 μM TG2-treated peptide, 3H thymidine incorporation
Source text: as §1

[10] = system: intestinal T cell line 494.1.1; experiment: T cell proliferation assay, polyclonal T cell line 494.1.1; type: cell-based, human; conditions: DQ2+ APC, 5 μM TG2-treated peptide, 3H thymidine incorporation
Source text: as §1

[11] = system: intestinal T cell line 482.1.4; experiment: T cell proliferation assay, polyclonal T cell line 482.1.4; type: cell-based, human; set-up: key: −: no response; Stimulatory index (SI; T + APC + TG2-treated peptide divided by T + APC) of 3-10; ++: SI above 10; conditions: DQ2+ APC, 5 μM TG2-treated peptide, 3H thymidine incorporation
Source text: as §1

[12] = system: intestinal T cell line 437.1.3; experiment: T cell proliferation assay, polyclonal T cell line 437.1.3; type: cell-based, human; set-up: key: −: no response; Stimulatory index (SI; T + APC + TG2-treated peptide divided by T + APC) of 3-10; ++: SI above 10; conditions: DQ2+ APC, 5 μM TG2-treated peptide, 3H thymidine incorporation
Source text: as §1

[13] = system: intestinal T cell line 432.2.1; experiment: T cell proliferation assay, polyclonal T cell line 432.2.1; type: cell-based, human; set-up: key: −: no response; Stimulatory index (SI; T + APC + TG2-treated peptide divided by T + APC) of 3-10; ++: SI above 10; conditions: DQ2+ APC, 5 μM TG2-treated peptide, 3H thymidine incorporation
Source text: as §1

[14] = system: intestinal T cell line 451.1.1; experiment: T cell proliferation assay, polyclonal T cell line 451.1.1; type: cell-based, human; set-up: key: −: no response; Stimulatory index (SI; T + APC + TG2-treated peptide divided by T + APC) of 3-10; ++: SI above 10; conditions: DQ2+ APC, 5 μM TG2-treated peptide, 3H thymidine incorporation
Source text: as §1

[15] = system: intestinal T cell line 437.1.1; experiment: T cell proliferation assay, polyclonal T cell line 437.1.1; type: cell-based, human; set-up: key: −: no response; Stimulatory index (SI; T + APC + TG2-treated peptide divided by T + APC) of 3-10; ++: SI above 10; conditions: DQ2+ APC, 5 μM TG2-treated peptide, 3H thymidine incorporation
Source text: as §1

[16] = system: intestinal T cell line 461.1.4; experiment: T cell proliferation assay, polyclonal T cell line 461.1.4; type: cell-based, human; conditions: DQ2+ APC, 5 μM TG2-treated peptide, 3H thymidine incorporation
Source text: as §1

[17] = system: intestinal T cell line 491.1.3; experiment: T cell proliferation assay, polyclonal T cell line 491.1.3; type: cell-based, human; set-up: key: −: no response; Stimulatory index (SI; T + APC + TG2-treated peptide divided by T + APC) of 3-10; ++: SI above 10; conditions: DQ2+ APC, 5 μM TG2-treated peptide, 3H thymidine incorporation
Source text: as §1

[18] = system: intestinal T cell line 488.3.1; experiment: T cell proliferation assay, polyclonal T cell line 488.3.1; type: cell-based, human; conditions: DQ2+ APC, 5 μM TG2-treated peptide, 3H thymidine incorporation
Source text: as §1

Substance: Trypsin
- specific activity [1]: 2000 USP/mg

Substance: Pepsin
- specific activity [2]: 4000 U/mg

Substance: Chymotrypsin
- specific activity [3]: 800 USP/mg

Substance: Elastase
- specific activity [4]: 5 U/mg

Substance: LQPQQPFPQQPQQPYPQQPQ [γ-III and γ-VI]
- Response to TG2-treated gluten peptides (stimulatory index) [5]: −
- Response to TG2-treated gluten peptides (stimulatory index) [6]: −
- Response to TG2-treated gluten peptides (stimulatory index) [7]: + (Stimulatory index (SI; T + APC + TG2-treated peptide divided by T + APC) of 3-10)
- Response to TG2-treated gluten peptides (stimulatory index) [8]: + (Stimulatory index (SI; T + APC + TG2-treated peptide divided by T + APC) of 3-10)
- Response to TG2-treated gluten peptides (stimulatory index) [9]: + (Stimulatory index (SI; T + APC + TG2-treated peptide divided by T + APC) of 3-10)
- Response to TG2-treated gluten peptides (stimulatory index) [10]: ++ (SI above 10)
- Response to TG2-treated gluten peptides (stimulatory index) [11]: −
- Response to TG2-treated gluten peptides (stimulatory index) [12]: −
- Response to TG2-treated gluten peptides (stimulatory index) [13]: −
- Response to TG2-treated gluten peptides (stimulatory index) [14]: −
- Response to TG2-treated gluten peptides (stimulatory index) [15]: −
- Response to TG2-treated gluten peptides (stimulatory index) [16]: + (Stimulatory index (SI; T + APC + TG2-treated peptide divided by T + APC) of 3-10)
- Response to TG2-treated gluten peptides (stimulatory index) [17]: −
- Response to TG2-treated gluten peptides (stimulatory index) [18]: + (Stimulatory index (SI; T + APC + TG2-treated peptide divided by T + APC) of 3-10)
